For two molecules, Activity and Drug uptake results are on record in ChEMBL document CHEMBL3045349, “A comparative study on the interference of two herbicides in wheat and italian ryegrass and on their antioxidant activities and detoxification rates” (J Agric Food Chem, 2011).

For series [1], the system named is Lolium multiflorum. As to the kind of experiment: Effect on photosynthetic activity in Lolium multiflorum (Italian ryegrass) shoots assessed as leaf net photosynthesis rate measured by CO2 production compound administered at rate of 14 mf/flat measured 24 hr post treatment (reference value: 4.55 umol/m2/s). Type of series: functional.
For series [2], the system named is Triticum aestivum. As to the kind of experiment: Effect on antioxidant enzyme system in Triticum aestivum (wheat) shoots assessed as dehydroascorbate reductase activity per mg protein compound administered at rate of 14 mf/flat measured 48 hr post treatment (reference value: 4.6 nmol/s per mg protein). Type of series: functional.
Series [3] relates to Lolium multiflorum. As to the kind of experiment: Effect on photosynthetic activity in Lolium multiflorum (Italian ryegrass) shoots assessed as leaf net photosynthesis rate measured by CO2 production compound administered at rate of 14 mf/flat measured 72 hr post treatment (reference value: 4.45 umol/m2/s). Type of series: functional.
Series [4] relates to Triticum aestivum. As to the kind of experiment: Effect on antioxidant enzyme system in Triticum aestivum (wheat) shoots assessed as glutathione S-transferase activity per mg protein compound administered at rate of 14 mf/flat measured […] post treatment (reference value: 2.4 nmol/s per mg protein). Type of series: functional.
The subject of series [5] is Shoot. As to the kind of experiment: Drug level in Triticum aestivum (wheat) shoots compound administered at rate of 14 mf/flat measured 144 hr post treatment by HPLC. Type of series: ADME.
Series [6] has as its system Lolium multiflorum. As to the kind of experiment: Effect on antioxidant enzyme system in Lolium multiflorum (Italian ryegrass) shoots assessed as dehydroascorbate reductase activity per mg protein compound administered at rate of 14 mf/flat measured 48 hr post treatment (reference value: 3.7 nmol/s per mg protein). Type of series: functional.
Series [7] has as its system Lolium multiflorum. As to the kind of experiment: Effect on MDA content in Lolium multiflorum (Italian ryegrass) shoots compound administered at rate of 14 mf/flat measured 48 hr post treatment (reference value: 0.65 uM/L). Type of series: functional.
Series [8] deals with Lolium multiflorum. As to the kind of experiment: Effect on photosynthetic activity in Lolium multiflorum (Italian ryegrass) shoots assessed as leaf net photosynthesis rate measured by CO2 production compound administered at rate of 14 mf/flat measured 48 hr post treatment (reference value: 4.89 umol/m2/s). Type of series: functional.
In series [9] the test system is Triticum aestivum. As to the kind of experiment: Reduction in glutathione S-transferase activity in Triticum aestivum (wheat) shoots compound administered at rate of 14 mf/flat measured 48 hr post treatment. Type of series: functional. Set-up: scale not given: the % may be the effect or the level left.
The subject of series [10] is Lolium multiflorum. As to the kind of experiment: Effect on antioxidant enzyme system in Lolium multiflorum (Italian ryegrass) shoots assessed as ascorbate peroxidase activity per mg protein compound administered at rate of 14 mf/flat measured 48 hr post treatment (reference value: 11.3 nmol/s per mg protein). Type of series: functional.
The test system of series [11] is Lolium multiflorum. As to the kind of experiment: Increase in MDA content in Lolium multiflorum (Italian ryegrass) shoots compound administered at rate of 14 mf/flat measured 24 hr post treatment. Type of series: functional.
The subject of series [12] is Triticum aestivum. As to the kind of experiment: Effect on photosynthetic activity in Triticum aestivum (wheat) shoots assessed as dark respiration rate measured by CO2 production compound administered at rate of 14 mf/flat measured 48 hr post treatment (reference value: -1.43 umol/m2/s). Type of series: functional.
The subject of series [13] is Lolium multiflorum. As to the kind of experiment: Increase in antioxidant enzyme system in Lolium multiflorum (Italian ryegrass) shoots assessed as increase in dehydroascorbate reductase activity compound administered at rate of 14 mf/flat measured 48 hr post treatment. Type of series: functional.
In series [14] the test system is Lolium multiflorum. As to the kind of experiment: Increase in antioxidant enzyme system in Lolium multiflorum (Italian ryegrass) shoots assessed as increase in ascorbate peroxidase activity compound administered at rate of 14 mf/flat measured 72 hr post treatment. Type of series: functional.
Series [15] has as its system Triticum aestivum. As to the kind of experiment: Effect on photosynthetic activity in Triticum aestivum (wheat) shoots assessed as dark respiration rate measured by CO2 production compound administered at rate of 14 mf/flat measured 72 hr post treatment (reference value: -1.07 umol/m2/s). Type of series: functional.

With `CCNc1nc(Cl)nc(NC(C)C)n1` [ATRAZINE], the Activity in series [1] is -0.61 micromol/m2/s; in series [2] it was 5.3 nmol/s/mg protein; in series [3], -1.35 micromol/m2/s; in [4], 2.5 nmol/s/mg protein; in series [6], 3.6 nmol/s/mg protein; in series [7], 0.85 µM. Further, the Activity is -1.04 micromol/m2/s in series [8], 26% in series [9], 14.2 nmol/s/mg protein in series [10] and 25% in [11]. Moreover, in series [5], the Drug uptake is given as 0.35 ppm.

Consider `O=[N+]([O-])c1ccc(Oc2ccc(C(F)(F)F)cc2[N+](=O)[O-])cc1` [FLUORODIFEN], for which the Activity was 4.64 micromol/m2/s in series [1]; 5.1 nmol/s/mg protein in series [2]; 4.05 micromol/m2/s in series [3]; 2.3 nmol/s/mg protein in series [4]; -0.77 micromol/m2/s in [12]; 3.7 nmol/s/mg protein in series [6]. Further, the Activity in series [7] was 0.74 µM; in [8], 4.42 micromol/m2/s; in [13] it was 19%; in series [14], 21%; in series [15], -0.94 micromol/m2/s; in series [10], 15.3 nmol/s/mg protein.
